≈ marks a conversion by molar mass, not a printed value. Read-outs that look alike come from different tables or passages of the source.
Tests used:
[1] = Microsomal stability, mouse
[2] = molecular target: T1, human D2R/β-arrestin (Homo sapiens (Human), UniProt P14416); conditions: read-out: cAMP Antagonist
[3] = molecular target: T1, human D2R/β-arrestin; test: Gi/cAMP agonist assay (Lance Ultra cAMP, Forskolin); assay type: cell-based; conditions: CHO-K1 cell line expressing human D2R/β-arrestin
Method in brief: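 Read-out was Lance Ultra competitive TR-FRET (Eu-cAMP tracer plus ULight-anti-cAMP) following forskolin-induced cAMP production. Before forskolin stimulation, compounds were pin-transferred onto the seeded cells for 10 min at 37 °C.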

[4] = molecular target: T1, human D2R/β-arrestin; conditions: read-out: β-arrestin Antagonist
[5] = molecular target: T1, human D2R/β-arrestin; test: β-Arrestin agonist assay (PathHunter); assay type: cell-based; conditions: CHO-K1 cell line expressing human D2R/β-arrestin
Method in brief: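 Readout follows addition of Buffer:Emerald II:Galactor-Star reagent (19:5:1) to agonist-treated plates, measured as luminescence or fluorescence.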

[6] = Microsomal stability, rat; assay type: in vitro ADME
[7] = Microsomal stability, human; assay type: in vitro ADME
[8] = Plasma stability, mouse
[9] = Plasma stability, rat; assay type: in vitro ADME
[10] = Plasma stability, human; assay type: in vitro ADME
[11] = molecular target: T1, human D2R/β-arrestin; test: cell-based; conditions: β-arrestin Antagonist
[12] = Solubility in PBS; assay type: physicochemical; conditions: aqueous buffer
[13] = molecular target: T1, human D2R/β-arrestin; test: cell-based; conditions: cAMP Antagonist
[14] = CHO-K1 cell line expressing human D2R/β-arrestin, quinpirole used as agonist

T1 sequence (P14416 whole entry): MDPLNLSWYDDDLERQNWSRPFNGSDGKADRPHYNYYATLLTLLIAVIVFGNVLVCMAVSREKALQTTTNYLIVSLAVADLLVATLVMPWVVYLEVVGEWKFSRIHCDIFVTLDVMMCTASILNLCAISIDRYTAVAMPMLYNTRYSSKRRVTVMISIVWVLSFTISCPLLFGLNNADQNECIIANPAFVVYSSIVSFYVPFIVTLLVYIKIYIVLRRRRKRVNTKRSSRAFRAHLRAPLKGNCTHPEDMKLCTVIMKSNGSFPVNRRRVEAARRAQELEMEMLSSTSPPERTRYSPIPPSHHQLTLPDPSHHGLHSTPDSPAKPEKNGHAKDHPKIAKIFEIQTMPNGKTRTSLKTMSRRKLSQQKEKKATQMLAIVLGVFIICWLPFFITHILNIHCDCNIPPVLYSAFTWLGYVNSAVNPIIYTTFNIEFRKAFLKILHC

SMILES | Microsomal Stability: % remaining after 60 minutes [1] | IC50 [2] | EC50 [3] | IC50 [4] | EC50 [5] | further results
CC1(C(=O)NC(c2ccc(F)cc2)c2ccccn2)CCN(CCOc2ccccc2C(F)(F)F)CC1 (single isomer, unassigned) [Compound 70b, N-((4-fluorophenyl)(pyridin-2-yl)methyl)-4-methyl-1-(2-(2-(trifluoromethyl)phenoxy)ethyl) piperidine-4-carboxamide] | m0% | > 30 µM | < 0.1 µM | 1 to 10 µM | > 30 µM | 
COc1cccc(C(NC(=O)C2CCN(CCOc3ccccc3F)CC2)c2ccccn2)c1 (single isomer, unassigned) [Compound 22b, 1-(2-(2-fluorophenoxy)ethyl)-N-((3-methoxyphenyl)(pyridin-2-yl)methyl) piperidine-4-carboxamide] | m12% | 0.1 to 1 µM | > 30 µM | 0.1 to 1 µM | > 30 µM | 
O=C(NC(c1ccc(Cl)cc1)c1ccccn1)C1CCN(CCOc2ccc(C(F)(F)F)cc2)CC1 (centres unmarked) [Compound 8, N-((4-chlorophenyl)(pyridin-2-yl)methyl)-1-(2-(4-(trifluoromethyl)phenoxy)ethyl) piperidine-4-carboxamide] | 53% |  | 10 to 30 µM |  | > 30 µM | Microsomal Stability: % remaining after 60 minutes [6]: 100%; Microsomal Stability: % remaining after 60 minutes [7]: 82%; Plasma Stability: % remaining after 5 hours [8]: 100%; Plasma Stability: % remaining after 5 hours [9]: 98.1%; Plasma Stability: % remaining after 5 hours [10]: 100%; IC50 [11, 14]: 10 to 30 µM; solubility [12]: 1.1 µM (≈ 0.57 µg/mL); IC50 [13, 14]: > 30 µM
CC(C)N(CC1CCN(CCOc2ccccc2)CC1)C(c1ccc(Cl)cc1)c1ccccn1 (centres unmarked) [Compound 103, N-((4-chlorophenyl)(pyridin-2-yl)methyl)-N-((1-(2-phenoxyethyl)piperidin-4-yl)methyl)propan-2-amine] | m1% |  | < 0.1 µM |  | > 30 µM | Plasma Stability: % remaining after 5 hours [8]: m97%; IC50 [11]: < 0.1 µM; IC50 [13]: > 30 µM
O=C(NC(c1ccc(Cl)cc1)c1ccccn1)C1CCN(CCOc2ccccc2C(F)(F)F)CC1 (single isomer, unassigned) [Compound 6a] | m31% | < 0.1 µM | > 30 µM | < 0.1 µM | > 30 µM | 
COc1cccc(C(NCC2CCN(CCOc3ccccc3F)CC2)c2ccccn2)c1 (centres unmarked) [Compound 88, N-((1-(2-(2-fluorophenoxy)ethyl)piperidin-4-yl)methyl)-1-(3-methoxyphenyl)-1-(pyridin-2-yl)methanamine] | m1% |  | < 0.1 µM |  | > 30 µM | IC50 [11, 14]: 0.1 to 1 µM; solubility [12]: 461 µM (≈ 207 µg/mL); IC50 [13, 14]: 0.1 to 1 µM
O=C(NC(c1ccc(Cl)cc1)c1ccccn1)C1CCN(CCOc2cccnc2)CC1 (centres unmarked) [Compound 10] | 44% |  | 0.1 to 1 µM |  | > 30 µM | Microsomal Stability: % remaining after 60 minutes [6]: 57%; Microsomal Stability: % remaining after 60 minutes [7]: 75%; IC50 [11, 14]: 10 to 30 µM; solubility [12]: > 500 µM; IC50 [13, 14]: > 30 µM
O=C(NC(c1ccc(Cl)cc1)c1ccccn1)C1CCN(CCOc2ccccc2C(F)(F)F)CC1 (single isomer, unassigned) [Compound 6b] | m2% | < 0.1 µM | > 30 µM | < 0.1 µM | > 30 µM | 
O=C(NC(c1cccc(OC(F)(F)F)c1)c1ccccn1)C1CCN(CCOc2ccccc2)CC1 (single isomer, unassigned) [Compound 118b, 1-(2-phenoxyethyl)-N-(pyridin-2-yl(3-(trifluoromethoxy)phenyl)methyl) piperidine-4-carboxamide] | m35% | > 30 µM | 1 to 10 µM | 1 to 10 µM | > 30 µM | 
COc1ccccc1OCCN1CCC(C(=O)NC(c2ccc(Cl)cc2)c2ccccn2)CC1 (centres unmarked) [Compound 109, N-((4-chlorophenyl) (pyridin-2-yl)methyl)-1-(2-(2-methoxyphenoxy)ethyl)piperidine-4-carboxamide] | 40% |  | > 30 µM |  | > 30 µM | Microsomal Stability: % remaining after 60 minutes [6]: 57%; Microsomal Stability: % remaining after 60 minutes [7]: 59%; IC50 [11, 14]: < 0.1 µM; solubility [12]: > 500 µM; IC50 [13, 14]: < 0.1 µM
O=C(NC(c1ccc(F)cc1)c1ccccn1)C1CCN(CCOc2ccccc2Cl)CC1 (single isomer, unassigned) [Compound 53a, 1-(2-(2-chlorophenoxy)ethyl)-N-((4-fluorophenyl)(pyridin-2-yl)methyl) piperidine-4-carboxamide] |  | 0.1 to 1 µM | > 30 µM | 0.1 to 1 µM | > 30 µM | 
O=C(NC(c1ccccc1)c1ccc(F)cc1)C1CCN(CCOc2ccccc2)CC1 (single isomer, unassigned) [Compound 45b] |  | 0.1 to 1 µM | 0.1 to 1 µM | 0.1 to 1 µM | > 30 µM | 
O=C(NC(c1ccc(Cl)cc1)c1ccccn1)C1CCN(CCn2ccc(=O)cc2)CC1 (single isomer, unassigned) [Compound 11a] |  | 1 to 10 µM | > 30 µM | 0.1 to 1 µM | > 30 µM | 
O=C(NC(c1ccc(F)cc1)c1ccccn1)C1CCN(CCOc2ccccc2C(F)(F)F)CC1 (single isomer, unassigned) [Compound 52a] |  | < 0.1 µM | > 30 µM | 0.1 to 1 µM | > 30 µM | 
c1ccc(OCCN2CCC(CNC(c3ccc4c(c3)OCO4)c3ccccn3)CC2)cc1 (single isomer, unassigned) [Compound 102b, 1-(benzo[d][1,3]dioxol-5-yl)-N-((1-(2-phenoxyethyl)piperidin-4-yl)methyl)-1-(pyridin-2-yl)methanamine] |  |  | 1 to 10 µM |  | > 30 µM | IC50 [2, 14]: 1 to 10 µM; IC50 [4, 14]: 1 to 10 µM
O=C(NC(c1ccc2c(c1)OCO2)c1ccccn1)C1CCN(CCOc2ccccc2F)CC1 (single isomer, unassigned) [Compound 95b, N-(benzo[d][1,3]dioxol-5-yl(pyridin-2-yl)methyl)-1-(2-(2-fluorophenoxy)ethyl) piperidine-4-carboxamide] | m12% | 0.1 to 1 µM | 1 to 10 µM | 0.1 to 1 µM | > 30 µM | 
O=C(NC(c1ccc(Cl)cc1)c1ccccn1)C1CCN(CCn2ccc(=O)cc2)CC1 (single isomer, unassigned) [Compound 11b] |  | > 30 µM | > 30 µM | > 30 µM | > 30 µM | 
O=C(NC(c1ccc(F)cc1)c1ccccn1)C1CCN(CCOc2ccccc2F)CC1 (single isomer, unassigned) [Compound 54b, 1-(2-(2-fluorophenoxy)ethyl)-N-((4-fluorophenyl)(pyridin-2-yl)methyl) piperidine-4-carboxamide] |  | > 30 µM | 0.1 to 1 µM | 1 to 10 µM | > 30 µM | 
O=C(NC(c1ccc(F)cc1)c1ccc(Cl)cc1)C1CCN(CCOc2ccccc2)CC1 (single isomer, unassigned) [Compound 42b] |  | 1 to 10 µM | 10 to 30 µM | 1 to 10 µM | > 30 µM | 

Reference: patent US10752588B2 (The Broad Institute, Inc., priority 2014, dated 2020)
